Patent US20090170758A1, “COMPOSITIONS COMPRISING PULMONARY SURFACTANTS AND A POLYMYXIN HAVING IMPROVED SURFACE PROPERTIES” (Chiesi Farmaceutici S.p.A., priority 2002, published 2009)

Test: Spreading experiments on a modified Wilhelmy balance
Type: physicochemical
Details: Curosurf diluted to 20 mg/ml, 10 microl
Protocol: Experiments were performed at 37° C. using a modified Wilhelmy balance with a surface area of 20 cm^2. Standard amounts of Curosurf at various concentrations (10-80 mg/ml) were applied onto a hypophase of saline, approximately 40 mm from the dipping plate. In some experiments, CaCl2 (2 mM), dextran (30 mg/ml), or polymyxin B (2% on the weight of the surfactant, i.e. 0.4 mg/ml) was added to diluted surfactant material (20 mg/ml). The effect of albumin at low concentration (0.1 mg/ml) added to the hypophase was also investigated. Surface tension, measured 1 sec after administration of the sample was used as a parameter combining spreading and film formation by adsorption from the hypophase.

[1] = agent added to surfactant (CaCl2 2 mM, dextran 30 mg/ml, polymyxin B 2% = 0.4 mg/ml), no albumin
[2] = agent added to surfactant, albumin 0.1 mg/ml added to the hypophase

Surface tension at 1 sec (mN/m) [1] [mN/m] | Surface tension at 1 sec (mN/m) [2] [mN/m] | Compound
52 | 70 | [Ca+2].[Cl-].[Cl-] [CaCl2]
28 | 45 | polymyxin B
